molecular target: T1, RIPK1 (Homo sapiens, UniProt Q13546); assay: RIPK1 degradation Western Blot assay; assay type: cell-based; details: human cells, 24 h incubation at 37° C., read-out: Degradation Activity (DC50, concentration at which 50% of RIPK1 kinase has been degraded)
T1 construct: endogenous in cells
T1 sequence (Q13546 1-671): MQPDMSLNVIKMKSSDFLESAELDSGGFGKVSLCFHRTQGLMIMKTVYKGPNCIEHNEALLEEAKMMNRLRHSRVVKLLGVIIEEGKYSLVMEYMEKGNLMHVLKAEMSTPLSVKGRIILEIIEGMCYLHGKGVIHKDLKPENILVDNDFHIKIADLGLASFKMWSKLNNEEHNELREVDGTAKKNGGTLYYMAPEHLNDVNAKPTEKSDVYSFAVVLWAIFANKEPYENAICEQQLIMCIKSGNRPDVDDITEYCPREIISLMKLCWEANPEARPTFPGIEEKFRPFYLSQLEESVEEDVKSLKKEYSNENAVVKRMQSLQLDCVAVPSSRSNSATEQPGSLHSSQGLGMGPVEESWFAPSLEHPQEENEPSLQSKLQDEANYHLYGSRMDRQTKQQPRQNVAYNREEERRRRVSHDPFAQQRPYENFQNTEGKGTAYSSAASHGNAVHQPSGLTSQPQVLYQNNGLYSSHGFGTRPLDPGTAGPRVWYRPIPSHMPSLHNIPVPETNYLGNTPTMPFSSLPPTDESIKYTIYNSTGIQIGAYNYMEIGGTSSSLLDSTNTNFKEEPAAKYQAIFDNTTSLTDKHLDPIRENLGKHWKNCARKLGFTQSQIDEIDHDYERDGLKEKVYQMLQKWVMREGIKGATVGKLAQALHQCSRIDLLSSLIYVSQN
Protocol: Cells were seeded in 6-well cell culture plates overnight prior to treatment and incubated with the indicated doses of compounds for 24 h at 37° C. Then, cell pellets were collected and resuspended with RIPA lysis buffer, which was added with 1% […] inhibitor and phosphatase inhibitor Cocktail. Whole-cell protein lysates were sonicated on ice for 20 seconds and centrifuged at 12 000 rpm for 20 min at 4° C. The supernatants were determined using the BCA method. Proteins were separated by sodium dodecyl sulfate-polyacrylamide gel electrophoresis and transferred to polyvinylidene fluoride membranes. The membranes were incubated with blocking buffer for 1 h. Then, the membranes were incubated at 4° C. overnight with the primary antibodies. After washing, the membranes were incubated for 1 h at room temperature with the secondary antibody and washed again. Changes in protein expression was detected using an enhanced chemiluminescence detection reagent. RIPK1 antibody was purchased from Santa Cruz.
The activities of exemplary compounds as described herein, measured in terms of the degradation concentration (DC50 representing the concentration at which 50% of the target, in this case RIPK1 kinase, has been degraded), are provided in Table 11. In Table 11, a DC50 value less than 1 μM is indicated as an “A;” a DC50 value from 1 μM to 10 μM is indicated as a “B” and a DC50 value of greater than 10 μM is indicated as a “C.”

| DC50 [µM] | Structure (SMILES) |
| --- | --- |
| < 1 | Nc1ncnc2c1c(-c1ccc3c(c1)CCN3C(=O)Cc1cccc(OC(F)(F)F)c1)cn2CCCNC(=O)c1ccc(C#Cc2ccc(N3CCN(C(=O)CN4CCC(c5ccc(NC6CCC(=O)NC6=O)cc5)CC4)CC3)nc2)cc1 (stereo not shown) [Compound 67] |
| < 1 | Nc1ncnc2c1c(-c1ccc3c(c1)CCN3C(=O)Cc1cccc(OC(F)(F)F)c1)cn2CCCNC(=O)c1ccc(C#Cc2ccc(N3CC4(CN(C(=O)CN5CCC(c6ccc(NC7CCC(=O)NC7=O)cc6)CC5)C4)C3)nc2)cc1 (stereo not shown) [Compound 68] |
| 1 to 10 | Nc1ncnc2c1c(-c1ccc3c(c1)CCN3C(=O)Cc1cccc(OC(F)(F)F)c1)cn2CCCNC(=O)c1ccc(C#CC2CCN(C(=O)CN3CCC(c4ccc(NC5CCC(=O)NC5=O)cc4)CC3)CC2)cc1 (stereo not shown) [Compound 69] |
| > 10 | Cc1ncsc1-c1ccc([C@H](C)NC(=O)[C@@H]2C[C@@H](O)CN2C(=O)[C@@H](NC(=O)CCCCCCCCNC(=O)c2ccc(-c3cc(N4CCC(C(=O)N5N=CCC5c5ccccc5)CC4)ncn3)cc2)C(C)(C)C)cc1 (stereo partly shown) [Compound 77] |
| < 1 | Cn1c(=O)n(C2CCC(=O)NC2=O)c2ccc(CCC(=O)N3CCC(N4CCC(C#Cc5ccc(C(=O)NCCCn6cc(-c7ccc8c(c7)CCN8C(=O)Cc7cccc(OC(F)(F)F)c7)c7c(N)ncnc76)cc5)CC4)CC3)cc21 (stereo not shown) [Compound 78] |
| < 1 | Cn1c(=O)n(C2CCC(=O)NC2=O)c2ccc(CCC(=O)N3CCN(c4ccc(C#Cc5ccc(C(=O)NCCCn6cc(-c7ccc8c(c7)CCN8C(=O)Cc7cccc(OC(F)(F)F)c7)c7c(N)ncnc76)cc5)cn4)CC3)cc21 (stereo not shown) [Compound 79] |
| < 1 | Cn1c(=O)n(C2CCC(=O)NC2=O)c2ccc(CCC(=O)N3CCC(C#Cc4ccc(C(=O)NCCCn5cc(-c6ccc7c(c6)CCN7C(=O)Cc6cccc(OC(F)(F)F)c6)c6c(N)ncnc65)cc4)CC3)cc21 (stereo not shown) [Compound 80] |
| < 1 | Cn1c(=O)n(C2CCC(=O)NC2=O)c2ccc(CCC(=O)c3ccc(C#Cc4ccc(C(=O)NCCCn5cc(-c6ccc7c(c6)CCN7C(=O)Cc6cccc(OC(F)(F)F)c6)c6c(N)ncnc65)cc4)cn3)cc21 (stereo not shown) [Compound 81] |

Continued, molecule first:

| Structure (SMILES) | DC50 [µM] |
| --- | --- |
| Cc1ncsc1-c1ccc([C@H](C)NC(=O)[C@@H]2C[C@@H](O)CN2C(=O)[C@@H](NC(=O)CCN2CCC(C#Cc3ccc(C(=O)NCCCn4cc(-c5ccc6c(c5)CCN6C(=O)Cc5cccc(OC(F)(F)F)c5)c5c(N)ncnc54)cc3)CC2)C(C)(C)C)cc1 [Compound 36] | < 1 |
| Cc1ncsc1-c1ccc([C@H](C)NC(=O)[C@@H]2C[C@@H](O)CN2C(=O)[C@@H](NC(=O)CCN2CC3(CC(Oc4ccc(C(=O)NCCCn5cc(-c6ccc7c(c6)CCN7C(=O)Cc6cccc(OC(F)(F)F)c6)c6c(N)ncnc65)cn4)C3)C2)C(C)(C)C)cc1 [Compound 38] | 1 to 10 |
| Cc1ncsc1-c1ccc([C@H](CC(=O)NCCCCCCCCC(=O)NCCCn2cc(-c3ccc4c(c3)CCN4C(=O)Cc3cccc(OC(F)(F)F)c3)c3c(N)ncnc32)NC(=O)[C@@H]2C[C@@H](O)CN2C(=O)[C@H](NC(=O)C2(F)CC2)C(C)(C)C)cc1 [Compound 40, (2S,4R)—N—((S)-3-((9-((3-(4-amino-5-(1-(2-(3-(trifluoromethoxy)phenyl)acetyl)indolin-5-yl)-7H-pyrrolo[2,3-d]pyrimidin-7-yl)propyl)amino)-9-oxononyl)amino)-1-(4-(4-methylthiazol-5-yl)phenyl)-3-oxopropyl)-1-((R)-2-(1-fluorocyclopropane-1-carboxamido)-3,3-dimethylbutanoyl)-4-hydroxypyrrolidine-2-carboxamide] | < 1 |
| Cc1ncsc1-c1ccc([C@H](CC(=O)N2CCC(N3CCC(C#Cc4ccc(C(=O)NCCCn5cc(-c6ccc7c(c6)CCN7C(=O)Cc6cccc(OC(F)(F)F)c6)c6c(N)ncnc65)cc4)CC3)CC2)NC(=O)[C@@H]2C[C@@H](O)CN2C(=O)[C@@H](NC(=O)C2(F)CC2)C(C)(C)C)cc1 [Compound 45] | < 1 |
| Cc1ncsc1-c1ccc([C@H](CC(=O)N2CCN(c3ccc(C#Cc4ccc(C(=O)NCCCn5cc(-c6ccc7c(c6)CCN7C(=O)Cc6cccc(OC(F)(F)F)c6)c6c(N)ncnc65)cc4)cn3)CC2)NC(=O)[C@@H]2C[C@@H](O)CN2C(=O)[C@@H](NC(=O)C2(F)CC2)C(C)(C)C)cc1 [Compound 46] | < 1 |
| Cc1ncsc1-c1ccc([C@H](CC(=O)N2CCC(N3CCN(c4ccc(C#Cc5ccc(C(=O)NCCCn6cc(-c7ccc8c(c7)CCN8C(=O)Cc7cccc(OC(F)(F)F)c7)c7c(N)ncnc76)cc5)cn4)CC3)CC2)NC(=O)[C@@H]2C[C@@H](O)CN2C(=O)[C@@H](NC(=O)C2(F)CC2)C(C)(C)C)cc1 [Compound 47] | > 10 |
| Nc1ncnc2c1c(-c1ccc3c(c1)CCN3C(=O)Cc1cccc(OC(F)(F)F)c1)cn2CCCNC(=O)CCCCNC(=O)CN1CCC(c2ccc(NC3CCC(=O)NC3=O)cc2)CC1 (stereo not shown) [Compound 62] | < 1 |
| Nc1ncnc2c1c(-c1ccc3c(c1)CCN3C(=O)Cc1cccc(OC(F)(F)F)c1)cn2CCCNC(=O)c1ccc(C#CC2CCN(C3CCN(C(=O)CN4CCC(c5ccc(NC6CCC(=O)NC6=O)cc5)CC4)CC3)CC2)cc1 (stereo not shown) [Compound 66] | < 1 |

Source: patent US20240123073A1, “NOVEL RIPK1 KINASE TARGETING PROTACS AND METHODS OF USE THEREOF” (Baylor College of Medicine, priority 2020, published 2024)
